Assay results: US20220089578A1, “COMPOUNDS AS GLP-1R AGONISTS” (Terns Pharmaceuticals, Inc., priority 2020, published 2022)

Each compound was assayed against human GLP-1R (Homo sapiens, UniProt P43220) (assay: GLP-1R Cell Assay 1: cAMP Hunter CHO-K1 GLP1R Gs cell line, HitHunter cAMP assay). Settings: Table 2; cAMP Hunter CHO-K1 GLP1R Gs cells; percent activity normalized to Exendin-4.
Assay type: cell-based
How it was run: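 Luminescent enzyme-fragment-complementation immunoassay quantified cellular cAMP after 30-60 min compound exposure at 37 °C in HBSS/10 mM HEPES. Data from duplicate runs were normalised to Exendin-4 and fitted nonlinearly for EC50.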

Sequence of human GLP-1R (P43220 24-463): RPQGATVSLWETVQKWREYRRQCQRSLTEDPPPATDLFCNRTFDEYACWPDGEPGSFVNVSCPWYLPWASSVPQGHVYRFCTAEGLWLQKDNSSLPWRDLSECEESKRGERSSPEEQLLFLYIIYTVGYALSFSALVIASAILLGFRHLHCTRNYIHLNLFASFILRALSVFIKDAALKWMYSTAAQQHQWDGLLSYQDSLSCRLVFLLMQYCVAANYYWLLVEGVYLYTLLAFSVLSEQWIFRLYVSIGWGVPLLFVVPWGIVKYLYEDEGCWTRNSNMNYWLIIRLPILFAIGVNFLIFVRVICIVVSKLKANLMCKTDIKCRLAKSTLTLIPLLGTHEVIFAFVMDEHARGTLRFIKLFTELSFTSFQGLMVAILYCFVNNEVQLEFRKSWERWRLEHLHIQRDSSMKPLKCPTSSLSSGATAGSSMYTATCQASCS

For `C[C@@H]1COC[C@@H](N2CCC(c3cccc(OCc4ccc(C#N)cc4F)n3)CC2)c2nc3ccc(C(=O)O)cc3n21` [Compound 96, (1R,5S)-5-(4-(6-((4-cyano-2-fluorobenzyl)oxy)pyridin-2-yl)piperidin-1-yl)-1-methyl-1,2,4,5-tetrahydrobenzo[4,5]imidazo[1,2-d][1,4]oxazepine-9-carboxylic acid], which EC50 is on record?
Its EC50 is 78.1 nM.

With `O=C(O)c1ccc2nc(CN3CCN(c4cccc(OC5(c6ccccc6)CCC5)n4)CC3)n(C[C@@H]3CCO3)c2c1` [Compound 51, (S)-1-(oxetan-2-ylmethyl)-2-((4-(6-(1-phenylcyclobutoxy)pyridin-2-yl)piperazin-1-yl)methyl)-1H-benzo[d]imidazole-6-carboxylic acid] as the compound, how does the EC50 read?
Its EC50 is 348 nM.

For `O=C(O)c1ccc2nc(CN3CCN(c4cccc(OCc5nc6ccccc6s5)n4)CC3)n(C[C@@H]3CCO3)c2c1` [Compound 69, (S)-2-((4-(6-(benzo[d]thiazol-2-ylmethoxy)pyridin-2-yl)piperazin-1-yl)methyl)-1-(oxetan-2-ylmethyl)-1H-benzo[d]imidazole-6-carboxylic acid], which EC50 is on record?
The EC50 was 0.394 nM.

Which EC50 does the source give for `N#Cc1ccc(COc2nn(C3CCN(Cc4nc5ccc(C(=O)O)cc5n4C[C@@H]4CCO4)CC3)cc2CO)c(F)c1` [Compound 136, (S)-2-((4-(3-((4-cyano-2-fluorobenzyl)oxy)-4-(hydroxymethyl)-1H-pyrazol-1-yl)piperidin-1-yl)methyl)-1-(oxetan-2-ylmethyl)-1H-benzo[d]imidazole-6-carboxylic acid] here?
The EC50 was 109 nM.

With `O=C(O)c1ccc2nc(CN3CCN(c4cccc(OCc5ccc(Cl)cn5)n4)CC3)n(C[C@@H]3CCO3)c2c1` [Compound 58, (S)-2-((4-(6-((5-chloropyridin-2-yl)methoxy)pyridin-2-yl)piperazin-1-yl)methyl)-1-(oxetan-2-ylmethyl)-1H-benzo[d]imidazole-6-carboxylic acid] as the compound, how does the EC50 read?
The EC50 was 0.221 nM.

Which EC50 does the source give for `O=C(O)c1ccc2nc(CN3CCN(c4cccc(OCc5ccc6ccccc6n5)n4)CC3)n(C[C@@H]3CCO3)c2c1` [Compound 82, (S)-1-(oxetan-2-ylmethyl)-2-((4-(6-(quinolin-2-ylmethoxy)pyridin-2-yl)piperazin-1-yl)methyl)-1H-benzo[d]imidazole-6-carboxylic acid] here?
The EC50 was 2.78 nM.

Which EC50 does the source give for `N#Cc1cccc2c1CCCN(c1cccc(N3CCN(Cc4nc5ccc(C(=O)O)cc5n4C[C@@H]4CCO4)CC3)n1)C2` [Compound 78, (S)-2-((4-(6-(6-cyano-1,3,4,5-tetrahydro-2H-benzo[c]azepin-2-yl)pyridin-2-yl)piperazin-1-yl)methyl)-1-(oxetan-2-ylmethyl)-1H-benzo[d]imidazole-6-carboxylic acid] here?
The EC50 was 56.2 nM.

For `C[C@H]1COC[C@H](N2CCC(c3cccc(OCc4ccc(C#N)cc4F)n3)CC2)c2nc3ccc(C(=O)O)cc3n21` (single isomer, unassigned) [Compound 8-P1], which EC50 is on record?
The EC50 was greater than 500 nM.

With `Cc1cc(OCc2ccccc2)nn1C1CCN(Cc2nc3ccc(C(=O)O)cc3n2C[C@@H]2CCO2)CC1` [Compound 21, (S)-2-((4-(3-(benzyloxy)-5-methyl-1H-pyrazol-1-yl)piperidin-1-yl)methyl)-1-(oxetan-2-ylmethyl)-1H-benzo[d]imidazole-6-carboxylic acid] as the compound, how does the EC50 read?
Its EC50 is 2770 nM.

With `N#Cc1ccc(COc2nn(C3CCN(Cc4nc5ccc(C(=O)O)cc5n4C[C@@H]4CCO4)CC3)cc2C(F)(F)F)c(F)c1` [Compound 117, (S)-2-((4-(3-((4-cyano-2-fluorobenzyl)oxy)-4-(trifluoromethyl)-1H-pyrazol-1-yl)piperidin-1-yl)methyl)-1-(oxetan-2-ylmethyl)-1H-benzo[d]imidazole-6-carboxylic acid] as the compound, how does the EC50 read?
The EC50 was 5.93 nM.

Which EC50 does the source give for `O=C(O)c1ccc2nc(CN3CCN(c4cccc(OCc5nc6ccccc6o5)n4)CC3)n(C[C@@H]3CCO3)c2c1` [Compound 67, (S)-2-((4-(6-(benzo[d]oxazol-2-ylmethoxy)pyridin-2-yl)piperazin-1-yl)methyl)-1-(oxetan-2-ylmethyl)-1H-benzo[d]imidazole-6-carboxylic acid] here?
The EC50 was 0.849 nM.

Which EC50 does the source give for `O=C(O)c1ccc2nc(CN3CCN(c4cccc(OCc5nc6cc(F)ccc6s5)n4)CC3)n(C[C@@H]3CCO3)c2c1` [Compound 119, (S)-2-((4-(6-((5-fluorobenzo[d]thiazol-2-yl)methoxy)pyridin-2-yl)piperazin-1-yl)methyl)-1-(oxetan-2-ylmethyl)-1H-benzo[d]imidazole-6-carboxylic acid] here?
Its EC50 is 0.552 nM.

How did the EC50 turn out when `O=C(O)c1ccc2nc(CN3CC[C@]4(c5cccc(OCc6ccc(Cl)cc6Cl)n5)C[C@@H]4C3)n(C[C@@H]3CCO3)c2c1` (single isomer, unassigned) [Compound 126-P2] was run?
Its EC50 is 0.373 nM.

With `Cn1cnc2ccc(COc3cccc(N4CCN(Cc5nc6ccc(C(=O)O)cc6n5C[C@@H]5CCO5)CC4)n3)cc21` [Compound 72, (S)-2-((4-(6-((1-methyl-1H-benzo[d]imidazol-6-yl)methoxy)pyridin-2-yl)piperazin-1-yl)methyl)-1-(oxetan-2-ylmethyl)-1H-benzo[d]imidazole-6-carboxylic acid] as the compound, how does the EC50 read?
Its EC50 is 4.6 nM.

`N#Cc1ccc(COc2cccc([C@]34CCN(Cc5nc6ccc(C(=O)O)cc6n5C[C@@H]5CCO5)C[C@H]3C4)n2)c(F)c1` [Compound 9-P2, 2-(((1S,6R)-6-(6-((4-cyano-2-fluorobenzyl)oxy)pyridin-2-yl)-3-azabicyclo[4.1.0]heptan-3-yl)methyl)-1-((S)-oxetan-2-ylmethyl)-1H-benzo[d]imidazole-6-carboxylic acid] was tested. Which EC50 did it give?
Its EC50 is 0.494 nM.

`N#Cc1cc(F)c2c(c1)CCC(c1cccc(N3CCN(Cc4nc5ccc(C(=O)O)cc5n4C[C@@H]4CCO4)CC3)n1)C2` (stereo partly drawn) [Compound 4, 2-((4-(6-(6-cyano-8-fluoro-1,2,3,4-tetrahydronaphthalen-2-yl)pyridin-2-yl)piperazin-1-yl)methyl)-1-((S)-oxetan-2-ylmethyl)-1H-benzo[d]imidazole-6-carboxylic acid] was tested. Which EC50 did it give?
Its EC50 is 4.58 nM.

How did the EC50 turn out when `O=C(O)c1ccc2nc(CN3CCN(c4cccc(OCc5nc6c(F)cccc6s5)n4)CC3)n(C[C@@H]3CCO3)c2c1` [Compound 107, (S)-2-((4-(6-((4-fluorobenzo[d]thiazol-2-yl)methoxy)pyridin-2-yl)piperazin-1-yl)methyl)-1-(oxetan-2-ylmethyl)-1H-benzo[d]imidazole-6-carboxylic acid] was run?
Its EC50 is 1.07 nM.

For `O=C(O)c1ccc2nc(CN3CC[C@]4(c5cccc(OCc6ccc(Cl)cc6F)n5)C[C@@H]4C3)n(C[C@@H]3CCO3)c2c1` [Compound 98, 2-(((1S,6R)-6-(6-((4-chloro-2-fluorobenzyl)oxy)pyridin-2-yl)-3-azabicyclo[4.1.0]heptan-3-yl)methyl)-1-(((S)-oxetan-2-yl)methyl)-1H-benzo[d]imidazole-6-carboxylic acid], which EC50 is on record?
Its EC50 is 0.556 nM.

How did the EC50 turn out when `N#Cc1ccc(COc2cccc(C3CCN([C@H]4CCn5c4nc4ccc(C(=O)O)cc45)CC3)n2)c(F)c1` (single isomer, unassigned) [Compound 6-P2] was run?
The EC50 was greater than 500 nM.

`O=C(O)c1ccc2nc3n(c2c1)CCOC[C@H]3N1CCC(c2cccc(OCc3ccccc3)n2)CC1` [Compound 93, (S)-5-(4-(6-(benzyloxy)pyridin-2-yl)piperidin-1-yl)-1,2,4,5-tetrahydrobenzo[4,5]imidazo [1,2-d][1,4]oxazepine-9-carboxylic acid] was tested. Which EC50 did it give?
The EC50 was greater than 500 nM.

With `N#Cc1cccc2c1CN(c1cccc(N3CCN(Cc4nc5ccc(C(=O)O)cc5n4C[C@@H]4CCO4)CC3)n1)CC2` [Compound 109, (S)-2-((4-(6-(8-cyano-3,4-dihydroisoquinolin-2(1H)-yl)pyridin-2-yl)piperazin-1-yl)methyl)-1-(oxetan-2-ylmethyl)-1H-benzo[d]imidazole-6-carboxylic acid] as the compound, how does the EC50 read?
The EC50 was 3.65 nM.

Same assay, conditions: Table 3; cAMP Hunter CHO-K1 GLP1R Gs cells; percent activity normalized to Exendin-4

With `N#Cc1ccc(CCn2ccc(C3CCN(Cc4nc5ccc(C(=O)O)cc5n4C[C@@H]4CCO4)CC3)n2)c(F)c1` [Compound 145, (S)-2-((4-(1-(4-cyano-2-fluorophenethyl)-1H-pyrazol-3-yl)piperidin-1-yl)methyl)-1-(oxetan-2-ylmethyl)-1H-benzo[d]imidazole-6-carboxylic acid] as the compound, how does the EC50 read?
The EC50 was greater than 500 nM.
